Where two headings read alike, the source gives them in different places.
Target: Human Factor D (Homo sapiens (Human), UniProt P00746)
Experiment: Human Factor D Assay
Format: biochemical
Summary of the method: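 Serum-purified human factor D (80 nM final) preincubated with compound 5 min at room temperature in 50 mM Tris, 1 M NaCl, pH 7.5. Z-L-Lys-SBzl and DTNB added at 100 μM each; A405 followed every 30 s for 30 min. IC50 by nonlinear regression of rates.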

[1] = Table 5, Human Factor D 80 nM, substrate Z-L-Lys-SBzl, read-out: IC50 (Stars)

Chain of Human Factor D (P00746 26-253): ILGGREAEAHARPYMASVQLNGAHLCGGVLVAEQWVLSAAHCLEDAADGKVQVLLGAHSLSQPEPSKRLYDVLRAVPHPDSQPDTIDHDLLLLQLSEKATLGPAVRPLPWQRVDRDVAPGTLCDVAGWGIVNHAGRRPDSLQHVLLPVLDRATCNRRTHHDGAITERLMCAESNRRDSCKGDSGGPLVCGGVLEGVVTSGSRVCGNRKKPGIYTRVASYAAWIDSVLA

IC50 (Table 7, read-out: IC5 (Stars)) | SMILES | IC50 [1] | also measured
< 1 µM | CC(=O)c1cc(CC(=O)N2C[C@H](F)C[C@H]2C(=O)Nc2cccc(Br)n2)cc(-c2cnc(C)nc2)c1 [Compound T-105, (2S,4R)-1-(2-(3-acetyl-5-(2-methylpyrimidin-5-yl)phenyl)acetyl)-N-(6-bromopyridin-2-yl)-4-fluoropyrrolidine-2-carboxamide] | – | –
> 10 µM | Cc1ccc(Br)nc1NC(=O)[C@@H]1C[C@@]2(C)C[C@H]2N1C(=O)Cn1nc(NCCC(=O)O)c2ccncc21 [Compound T-89, 3-((1-(2-((1R,3S,5R)-3-((6-bromo-3-methylpyridin-2-yl)carbamoyl)-5-methyl-2-azabicyclo[3.1.0]hexan-2-yl)-2-oxoethyl)-1H-pyrazolo[3,4-c]pyridin-3-yl)amino)propanoic acid] | – | –
1 to 10 µM | Cc1ncc(-c2cc(C#N)cc(CC(=O)N3[C@H](C(=O)Nc4nc(Br)ccc4C)C[C@@]4(C)C[C@@H]34)c2)cn1 [Compound T-115, (1R,3S,5R)-N-(6-bromo-3-methylpyridin-2-yl)-2-(2-(3-cyano-5-(2-methylpyrimidin-5-yl)phenyl)acetyl)-5-methyl-2-azabicyclo[3.1.0]hexane-3-carboxamide] | – | –
< 1 µM | CC(=O)c1cc(CC(=O)N2[C@H](C(=O)Nc3nc(Br)ccc3C)C[C@@]3(C)C[C@@H]23)cc(-c2cnc(C)nc2)c1 [Compound T-106, (1R,3S,5R)-2-(2-(3-acetyl-5-(2-methylpyrimidin-5-yl)phenyl)acetyl)-N-(6-bromo-3-methylpyridin-2-yl)-5-methyl-2-azabicyclo[3.1.0]hexane-3-carboxamide] | – | –
< 1 µM | CC(=O)c1nn(CC(=O)N2[C@H](C(=O)Nc3nc(Br)ccc3C)C[C@@]3(Cn4cc(C5CC5)nn4)C[C@@H]23)c2cnccc12 [Compound T-83, (1R,3S,5R)-2-(2-(3-acetyl-1H-pyrazolo[3,4-c]pyridin-1-yl)acetyl)-N-(6-bromo-3-methylpyridin-2-yl)-5-((4-cyclopropyl-1H-1,2,3-triazol-1-yl)methyl)-2-azabicyclo[3.1.0]hexane-3-carboxamide] | – | –

Second part, the compound before the results:

SMILES | IC50 (Table 7, read-out: IC5 (Stars)) | IC50 [1] | also measured
CC(=O)c1nn(CC(=O)N2C[C@H]3C[C@H]3[C@H]2C(=O)Nc2cccc(Br)n2)c2cc(S(C)(=N)=O)ccc12 (stereo partly drawn) [Compound T-7, (1R,2S,5S)-3-(2-(3-acetyl-6-(S-methylsulfonimidoyl)-1H-indazol-1-yl)acetyl)-N-(6-bromopyridin-2-yl)-3-azabicyclo[3.1.0]hexane-2-carboxamide] | – | < 1 µM | –
CC(=O)O[C@@H]1CO[C@H]2[C@@H]1OC[C@H]2Oc1ccc2c(c1)c(C(C)=O)nn2CC(=O)N1C[C@H](F)C[C@H]1C(=O)Nc1cccc(Br)n1 [Compound T-63, (3R,3aR,6R,6aR)-6-((3-acetyl-1-(2-((2S,4R)-2-((6-bromopyridin-2-yl)carbamoyl)-4-fluoropyrrolidin-1-yl)-2-oxoethyl)-1H-indazol-5-yl)oxy)hexa-hydrofuro[3,2-b]furan-3-yl acetate] | – | – | IC50 (Table 6, Human Factor D 80 nM, substrate Z-L-Lys-SBzl, read-out: IC5 (Stars)): < 1 µM
COC(=O)c1cc(C(C)=O)cn1CC(=O)N1C[C@H](F)C[C@H]1C(=O)Nc1cccc(Br)n1 [Compound T-16, methyl 4-acetyl-1-(2-((2S,4R)-2-((6-bromopyridin-2-yl)carbamoyl)-4-fluoropyrrolidin-1-yl)-2-oxoethyl)-1H-pyrrole-2-carboxylate] | – | 1 to 10 µM | –
Cc1ccc(Br)nc1NC(=O)[C@@H]1C[C@@]2(C)C[C@H]2N1C(=O)Cn1nc(C(N)=O)c2cc(NC(=O)C3CCCC3(F)F)ccc21 (stereo partly drawn) [Compound T-65, 1-(2-((1R,3S,5R)-3-((6-bromo-3-methylpyridin-2-yl)carbamoyl)-5-methyl-2-azabicyclo[3.1.0]hexan-2-yl)-2-oxoethyl)-5-(2,2-difluorocyclopentane-1-carboxamido)-1H-indazole-3-carboxamide] | < 1 µM | – | –
CC(=O)c1nn(CC(=O)N2C[C@H](F)C[C@H]2C(=O)Nc2cccc(Br)n2)c2c1CCCC2 [Compound T-37, (2S,4R)-1-(2-(3-acetyl-4,5,6,7-tetrahydro-1H-indazol-1-yl)acetyl)-N-(6-bromopyridin-2-yl)-4-fluoropyrrolidine-2-carboxamide] | – | 1 to 10 µM | –
CC(=O)c1nn(CC(=O)N2[C@H](C(=O)NCc3cccc(Cl)c3F)C[C@@]3(C)C[C@@H]23)c2c(C)cc(NC(=O)N3CCCC(F)(F)C3)cc12 [Compound T-67, (1R,3S,5R)-2-(2-(3-acetyl-5-(3,3-difluoropiperidine-1-carboxamido)-7-methyl-1H-indazol-1-yl)acetyl)-N-(3-chloro-2-fluorobenzyl)-5-methyl-2-azabicyclo[3.l.0]hexane-3-carboxamide] | < 1 µM | – | –
CCP(=O)(O)COc1ccc2c(C(C)=O)nn(CC(=O)N3C[C@H](F)C[C@H]3C(=O)Nc3nc(Br)ccc3C)c2c1 [Compound T-79, (((3-acetyl-1-(2-((2S,4R)-2-((6-bromo-3-methylpyridin-2-yl)carbamoyl)-4-fluoropyrrolidin-1-yl)-2-oxoethyl)-1H-indazol-6-yl)oxy)methyl)(ethyl)phosphinic acid] | < 1 µM | – | –
CC(=O)c1cn(CC(=O)N2[C@H](C(=O)NCc3cccc(Cl)c3F)C[C@@]3(CN4CCN(C)CC4)C[C@@H]23)c2cc(P(=O)(O)O)ccc12 [Compound T-44, (3-acetyl-1-(2-((1R,3S,5R)-3-((3-chloro-2-fluorobenzyl)carbamoyl)-5-((4-methylpiperazin-1-yl)methyl)-2-azabicyclo[3.1.0]hexan-2-yl)-2-oxoethyl)-1H-indol-6-yl)phosphonic acid] | – | < 1 µM | –
CC(=O)c1cc(C(=O)N2CCC(F)(F)C2)n(CC(=O)N2C[C@H](F)C[C@H]2C(=O)Nc2cccc(Br)n2)c1 [Compound T-18, (2S,4R)-1-(2-(4-acetyl-2-(3,3-difluoropyrrolidine-1-carbonyl)-1H-pyrrol-1-yl)acetyl)-N-(6-bromopyridin-2-yl)-4-fluoropyrrolidine-2-carboxamide] | – | > 10 µM | –
CC(=O)c1nn(CC(=O)N2C[C@H](F)C[C@H]2C(=O)NCC23C4C5C6C4C2C6C53)c2ccccc12 (stereo partly drawn) [Compound T-8, (2S,4R)-1-(2-(3-acetyl-1H-indazol-1-yl)acetyl)-N-(cuban-1-ylmethyl)-4-fluoropyrrolidine-2-carboxamide] | – | 1 to 10 µM | –
Cc1ncc(-c2cc(CC(=O)N3C[C@H](F)C[C@H]3C(=O)Nc3cccc(-c4ccccc4Cl)c3F)cc(-c3cnc(C)nc3)c2)cn1 [Compound T-104, (2S,4R)-1-(2-(3,5-bis(2-methylpyrimidin-5-yl)phenyl)acetyl)-N-(2′-chloro-2-fluoro-[1,1′-biphenyl]-3-yl)-4-fluoropyrrolidine-2-carboxamide] | > 10 µM | – | –
CC(=O)c1nn(CC(=O)N2[C@H](C(=O)Nc3nc(Br)ccc3C)C[C@@]3(CN(C)C)C[C@@H]23)c2cc(C(=O)NS(=O)(=O)C3CC3)ccc12 [Compound T-49, 3-acetyl-1-(2-((1R,3S,5R)-3-((6-bromo-3-methylpyridin-2-yl)carbamoyl)-5-((dimethylamino)methyl)-2-azabicyclo[3.1.0]hexan-2-yl)-2-oxoethyl)-N-(cyclopropylsulfonyl)-1H-indazole-6-carboxamide] | – | < 1 µM | –
CC(=O)c1nn(CC(=O)N2[C@H](C(=O)Nc3nc(Br)ccc3C)C[C@@]3(C)C[C@@H]23)c2ccc(NC(=O)C3CCCCC3(F)F)cc12 (stereo partly drawn) [Compound T-9, (1R,3S,5R)-2-(2-(3-acetyl-5-(2,2-difluorocyclohexane-1-carboxamido)-1H-indazol-1-yl)acetyl)-N-(6-bromo-3-methylpyridin-2-yl)-5-methyl-2-azabicyclo[3.10]hexane-3-carboxamide] | – | < 1 µM | –

Source: patent US11447465B2, “Pharmaceutical compounds for treatment of medical disorders” (Achillion Pharmaceuticals, Inc., priority 2017, dated 2022)
